Reference: ChEMBL document CHEMBL3301550, “MMV Mararia Box screening against P. falciparum asexual stage parasites under hypoxia and bicarbonate modified culture conditions”

Experiments:
Type in all cases: functional, organism-based
Settings in all cases: 3D7
Plasmodium falciparum [1] = test: MMV: 3H-Hyoxanthine uptake assay; RPMI 1640 (Invitrogen cat#11875-093) with Sodium Bicarbonate (NaHCO3) […].
Plasmodium falciparum [2] = test: MMV: Modified 3H-Hyoxanthine uptake assay; RPMI 1640 (Invitrogen cat#23400-013) without Sodium Bicarbonate (NaHCO3).
Plasmodium falciparum [3] = test: MMV: 3H-Hyoxanthine uptake assay; 5% O2, 5% CO2 in N2.
Plasmodium falciparum [4] = test: MMV: Modified 3H-Hyoxanthine uptake assay; 1% O2, 5% CO2 in N2.

## CCCN(CCC)CC(O)COc1ccccc1C(=O)Nc1ccccc1 (stereo unspecified)
Plasmodium falciparum [1]
  IC50: 315 nM
Plasmodium falciparum [2]
  IC50: 347 nM
Plasmodium falciparum [3]
  IC50: 281 nM
Plasmodium falciparum [4]
  IC50: 169 nM

## Fc1ccc2[nH]c3c(NCCCN4CCOCC4)ncnc3c2c1
Plasmodium falciparum [1]
  IC50: > 1000 nM
Plasmodium falciparum [2]
  IC50: > 1000 nM
Plasmodium falciparum [3]
  IC50: > 1000 nM
Plasmodium falciparum [4]
  IC50: > 1000 nM

## COc1ccc(C(=O)Nc2nonc2-c2ccc(OC)c(OC)c2)cc1Cl
Plasmodium falciparum [1]
  IC50: > 1000 nM
Plasmodium falciparum [2]
  IC50: > 1000 nM
Plasmodium falciparum [3]
  IC50: > 1000 nM
Plasmodium falciparum [4]
  IC50: > 1000 nM

## COc1ccc(C=C2SC(=N)N(c3ccccc3OC)C2=O)cc1
Plasmodium falciparum [2]
  IC50: 167 nM
Plasmodium falciparum [3]
  IC50: 531 nM

## CCOC(=O)c1c(C)n(-c2ccc(Cl)cc2)c2ccc(OC(=O)C=Cc3ccccc3)cc12
Plasmodium falciparum [1]
  IC50: > 1000 nM
Plasmodium falciparum [2]
  IC50: > 1000 nM
Plasmodium falciparum [3]
  IC50: > 1000 nM
Plasmodium falciparum [4]
  IC50: > 1000 nM

## COc1ccc2c(c1)OC(O)(C(F)(F)C(F)(F)F)CC2=O (stereo unspecified)
Plasmodium falciparum [1]
  IC50: 246 nM
Plasmodium falciparum [2]
  IC50: 204 nM
Plasmodium falciparum [3]
  IC50: 443 nM
Plasmodium falciparum [4]
  IC50: 702 nM

## C=CC12CCN(CC1)C(C(O)c1ccnc3ccc(OC)cc13)C2 (stereo unspecified)
Plasmodium falciparum [1]
  IC50: 21 nM
Plasmodium falciparum [2]
  IC50: 40 nM

## Cc1ccc(-c2cc3nc4c(c(O)n3n2)CCCC4)cc1
Plasmodium falciparum [1]
  IC50: 889 nM
Plasmodium falciparum [2]
  IC50: 1260 nM
Plasmodium falciparum [3]
  IC50: > 1000 nM
Plasmodium falciparum [4]
  IC50: > 1000 nM

## Cc1cccc(Nc2nc(N)c3ccccc3n2)c1
Plasmodium falciparum [1]
  IC50: 283 nM
Plasmodium falciparum [2]
  IC50: 332 nM
Plasmodium falciparum [3]
  IC50: 299 nM
Plasmodium falciparum [4]
  IC50: 230 nM

## CCn1c(CN2CCN(Cc3ccccc3)CC2)nc2cc(NC(=O)c3cccs3)ccc21
Plasmodium falciparum [1]
  IC50: 174 nM
Plasmodium falciparum [2]
  IC50: 186 nM

## c1ccc2cc3c(Nc4ccc(N5CCOCC5)cc4)ccnc3cc2c1
Plasmodium falciparum [1]
  IC50: 1440 nM
Plasmodium falciparum [2]
  IC50: > 1000 nM
Plasmodium falciparum [3]
  IC50: > 1000 nM
Plasmodium falciparum [4]
  IC50: > 1000 nM

## Cc1cc(C)c2c(c1)OCN(Cc1ccccc1Cl)C2
Plasmodium falciparum [1]
  IC50: 276 nM
Plasmodium falciparum [2]
  IC50: 362 nM

## COc1cc(OC)c(N(C)C(=O)c2cc3c(s2)-c2ccccc2S(=O)(=O)C3)cc1Cl
Plasmodium falciparum [1]
  IC50: > 500 nM
Plasmodium falciparum [2]
  IC50: > 500 nM
Plasmodium falciparum [3]
  IC50: > 500 nM
Plasmodium falciparum [4]
  IC50: > 500 nM

## CCCc1cc(O)c2c3c(c(=O)oc2c1)CN(C)CC3
Plasmodium falciparum [3]
  IC50: > 1000 nM
Plasmodium falciparum [4]
  IC50: > 1000 nM

## Cc1cc(NC(=O)C2c3ccccc3C(=O)N(CC(C)C)C2c2cccs2)no1 (stereo unspecified)
Plasmodium falciparum [1]
  IC50: 213 nM
Plasmodium falciparum [2]
  IC50: 385 nM
Plasmodium falciparum [3]
  IC50: 300 nM
Plasmodium falciparum [4]
  IC50: 183 nM

## Oc1ccccc1CNCC12CC3CC(CC(C3)C1)C2
Plasmodium falciparum [1]
  IC50: 104 nM
Plasmodium falciparum [2]
  IC50: 121 nM
Plasmodium falciparum [3]
  IC50: 136 nM
Plasmodium falciparum [4]
  IC50: 63 nM

## CNCCCNc1ccnc2cc(Cl)ccc12
Plasmodium falciparum [1]
  IC50: 40 nM
Plasmodium falciparum [2]
  IC50: 155 nM
Plasmodium falciparum [3]
  IC50: 44 nM
Plasmodium falciparum [4]
  IC50: 23 nM

## COc1ccccc1CNC(=O)CCn1c(=O)[nH]c2ccsc2c1=O
Plasmodium falciparum [1]
  IC50: 367 nM
Plasmodium falciparum [2]
  IC50: 432 nM

## COc1ccc(Br)cc1C1Nc2ccc3ccccc3c2C2=C1C(=O)CC(c1ccccc1)C2 (stereo unspecified)
Plasmodium falciparum [1]
  IC50: 783 nM
Plasmodium falciparum [2]
  IC50: 710 nM
Plasmodium falciparum [3]
  IC50: > 1000 nM
Plasmodium falciparum [4]
  IC50: > 1000 nM

## Cc1cc(C=C2SC(=Nc3ccccc3)N(C3CCCC3)C2=O)c(C)n1-c1ccc(Cl)cc1
Plasmodium falciparum [1]
  IC50: > 1000 nM
Plasmodium falciparum [2]
  IC50: > 1000 nM
Plasmodium falciparum [3]
  IC50: > 1000 nM
Plasmodium falciparum [4]
  IC50: > 1000 nM

## CCc1ccc(Nc2cc(C)c3ccc(O)cc3n2)cc1
Plasmodium falciparum [1]
  IC50: 171 nM
Plasmodium falciparum [2]
  IC50: 127 nM
Plasmodium falciparum [3]
  IC50: 165 nM
Plasmodium falciparum [4]
  IC50: 150 nM

## COc1ccc2c(=O)cc(C(Cl)(Cl)Cl)oc2c1
Plasmodium falciparum [1]
  IC50: 942 nM
Plasmodium falciparum [2]
  IC50: 789 nM
Plasmodium falciparum [3]
  IC50: > 1000 nM
Plasmodium falciparum [4]
  IC50: > 1000 nM

## COc1ccc(-c2nc3cc(Cc4ccc5[nH]c(-c6ccc(OC)cc6)nc5c4)ccc3[nH]2)cc1
Plasmodium falciparum [1]
  IC50: > 1000 nM
Plasmodium falciparum [2]
  IC50: > 1000 nM
Plasmodium falciparum [3]
  IC50: > 1000 nM
Plasmodium falciparum [4]
  IC50: > 1000 nM

## Cc1cc(Nc2ccc(Cl)cc2)n2nc(C(F)(F)F)nc2n1
Plasmodium falciparum [1]
  IC50: 112 nM
Plasmodium falciparum [2]
  IC50: 169 nM
Plasmodium falciparum [3]
  IC50: 349 nM
Plasmodium falciparum [4]
  IC50: 70 nM

## COc1ccc(C(C)=O)cc1N1C(=O)C2C(C1=O)C1(c3ccccc3)C(=O)C2(c2ccccc2)C(c2ccc(C)cc2)=C1c1ccc(C)cc1 (stereo unspecified)
Plasmodium falciparum [1]
  IC50: > 1000 nM
Plasmodium falciparum [2]
  IC50: > 1000 nM
Plasmodium falciparum [3]
  IC50: > 1000 nM
Plasmodium falciparum [4]
  IC50: > 1000 nM

## CCCCCCOC(=O)C1=C(C)NC(=O)NC1c1ccccc1F (stereo unspecified)
Plasmodium falciparum [1]
  IC50: > 1000 nM
Plasmodium falciparum [2]
  IC50: > 1000 nM
Plasmodium falciparum [3]
  IC50: > 1000 nM
Plasmodium falciparum [4]
  IC50: > 1000 nM

## Cc1ccc(N2C3c4ccccc4N(S(=O)(=O)c4ccc(C)cc4)C2c2ccccc2N3S(=O)(=O)c2ccc(C)cc2)cc1
Plasmodium falciparum [1]
  IC50: > 500 nM
Plasmodium falciparum [2]
  IC50: > 500 nM
Plasmodium falciparum [3]
  IC50: > 500 nM
Plasmodium falciparum [4]
  IC50: > 500 nM

## CCCc1c(CC)c(=N)c2ccccc2n1C
Plasmodium falciparum [1]
  IC50: 211 nM
Plasmodium falciparum [2]
  IC50: 355 nM
Plasmodium falciparum [3]
  IC50: 397 nM
Plasmodium falciparum [4]
  IC50: 65 nM

## Cc1ccc(Nc2nc(NCCO)c3ccccc3n2)cc1C
Plasmodium falciparum [1]
  IC50: 186 nM
Plasmodium falciparum [2]
  IC50: 325 nM
Plasmodium falciparum [3]
  IC50: 238 nM
Plasmodium falciparum [4]
  IC50: 219 nM

## CCOC(=O)c1cnc2c(C)cc(C)cc2c1Nc1ccc(OC)c(OC)c1
Plasmodium falciparum [1]
  IC50: > 2000 nM
Plasmodium falciparum [2]
  IC50: > 2000 nM
Plasmodium falciparum [3]
  IC50: > 1000 nM
Plasmodium falciparum [4]
  IC50: > 1000 nM

## COc1ccc(NC(=O)C2c3ccccc3C(=O)N(CC(C)C)C2c2cccs2)cc1 (stereo unspecified)
Plasmodium falciparum [1]
  IC50: 262 nM
Plasmodium falciparum [2]
  IC50: 370 nM
Plasmodium falciparum [3]
  IC50: 343 nM
Plasmodium falciparum [4]
  IC50: 211 nM

## c1ccc(Cn2c(N=Nc3c(Nc4ccccc4)ccc4ccccc34)nc3ccccc32)cc1
Plasmodium falciparum [1]
  IC50: 125 nM
Plasmodium falciparum [2]
  IC50: 64 nM
Plasmodium falciparum [3]
  IC50: > 500 nM
Plasmodium falciparum [4]
  IC50: > 500 nM
